Data published in the supplement of paper PMC10307832.

Assays:
Assay in all cases: relative viability (nuclei count vs DMSO), 5 days (fraction); higher = more cells survive
Mirin + Decitabine = compound: N=C1NC(=O)/C(=C/c2ccc(O)cc2)S1 [Mirin] + Nc1ncn([C@H]2C[C@H](O)[C@@H](CO)O2)c(=O)n1 [Decitabine] (partner 2 µM)
Procedure, shortened: (§1)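 Relative viability was taken as the ratio of nuclei in treated wells to nuclei in vehicle wells. Lung cancer cell lines in 1536-well plates received compounds by pin tool one day after seeding, either one drug alone or a fixed anchor-drug dose plus five library-drug doses (not always all listed) in √10 steps. Nuclei were counted on 4× images after 5 days of treatment, and values are medians of duplicate plates.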

[1] = compound: CCC1=CN=CN=C1N2CCN(CC2)CC3=NC4=C(N3)C=C(C=C4)C(F)(F)F + O=C(c1cc(Cc2n[nH]c(=O)c3ccccc23)ccc1F)N1CCN(C(=O)C2CC2)CC1 [Olaparib] (partner 8 µM)
Procedure, shortened: as §1

[2] = compound: CCn1c(-c2nonc2N)nc2cnc(Oc3cccc(NC(=O)c4ccc(OCCN5CCOCC5)cc4)c3)cc21 + CS(=O)(=O)N1CCN(Cc2cc3nc(-c4cccc5[nH]ncc45)nc(N4CCOCC4)c3s2)CC1 [Pictilisib] (partner 1 µM)
Procedure, shortened: as §1

[3] = compound: CCn1c(-c2nonc2N)nc2cnc(Oc3cccc(NC(=O)c4ccc(OCCN5CCOCC5)cc4)c3)cc21 + O=C(CCCCCCC(=O)Nc1ccccc1)NO [Vorinostat] (partner 1 µM)
Procedure, shortened: as §1

## UMC-11
Mirin + Decitabine; first compound 0.25 µM
  relative viability: 0.533
Mirin + Decitabine; first compound 2.5 µM
  relative viability: 0.572
Mirin + Decitabine; first compound 7.906 µM
  relative viability: 0.54
Mirin + Decitabine; first compound 25 µM
  relative viability: 0.418
[1]; first compound 0.04 µM
  relative viability: 0.393
[1]; first compound 0.1265 µM
  relative viability: 0.392
[1]; first compound 0.4 µM
  relative viability: 0.359
[1]; first compound 1.265 µM
  relative viability: 0.32
[1]; first compound 4 µM
  relative viability: 0.332
[2]; first compound 0.04 µM
  relative viability: 0.908
[2]; first compound 0.1265 µM
  relative viability: 0.751
[2]; first compound 0.4 µM
  relative viability: 0.464
[2]; first compound 1.265 µM
  relative viability: 0.241
[2]; first compound 4 µM
  relative viability: 0.188
[3]; first compound 0.04 µM
  relative viability: 0.427
[3]; first compound 0.1265 µM
  relative viability: 0.478
[3]; first compound 0.4 µM
  relative viability: 0.437
[3]; first compound 1.265 µM
  relative viability: 0.152
[3]; first compound 4 µM
  relative viability: 0.158
